Active and inactive are the calls of the source. No cut-off for these calls is given here.

Data on two compounds can be found in ChEMBL document CHEMBL5543126, “Combinatorial Ubiquitination REal-time PROteolysis (CURE-PROs): A Modular Platform for Generating Reversible, Self-Assembling Bifunctional Targeted Degraders” (J Med Chem, 2024).

What all share (assay type): cell-based
The target of assay [1] is Protein cereblon/Bromodomain-containing protein 4 (Homo sapiens) (UniProt O60885+Q96SW2). The experiment in a line: PROTAC activity at BRD4/CRBN in human HeLa cells assessed as induction of BRD4 degradation at 10 uM incubated for 24 hrs in presence of CRBN based ligand N-((2-(2,6-dioxopiperidin-3-yl)-1,3-dioxoisoindolin-4-yl)methyl)-2,3-dihydroxybenzamide by Western blot analysis based Combinatorial Ubiquitination Real-time PROteolysis analysis.
Sequence of Protein cereblon/Bromodomain-containing protein 4 (Homo sapiens) (Q96SW2 whole entry, looked up, other chains not shown): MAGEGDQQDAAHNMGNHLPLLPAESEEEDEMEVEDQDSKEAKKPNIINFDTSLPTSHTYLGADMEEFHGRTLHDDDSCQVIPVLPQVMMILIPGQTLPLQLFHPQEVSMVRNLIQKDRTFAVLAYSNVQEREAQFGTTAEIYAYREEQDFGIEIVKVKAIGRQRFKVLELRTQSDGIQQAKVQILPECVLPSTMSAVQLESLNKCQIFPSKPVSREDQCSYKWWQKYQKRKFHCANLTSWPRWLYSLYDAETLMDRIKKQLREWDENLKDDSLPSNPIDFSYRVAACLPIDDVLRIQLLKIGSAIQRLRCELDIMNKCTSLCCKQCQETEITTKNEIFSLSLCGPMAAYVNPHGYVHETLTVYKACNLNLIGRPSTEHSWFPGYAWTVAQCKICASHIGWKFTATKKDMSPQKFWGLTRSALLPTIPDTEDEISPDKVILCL

For assay [2], the target named is T1, von Hippel-Lindau disease tumor suppressor/Bromodomain-containing protein 4 (Homo sapiens, UniProt O60885+P40337). The experiment in a line: PROTAC activity at VHL/BRD4 in HEK293 cells assessed as induction of BRD4 degradation by measuring maximal level of degradation at 1 uM measured every 15 mins for 24 hrs in presence of VHL based ligand (2S,4R)-1-((S)-2-(2,3-dihydroxybenzamido)-3,3-dimethylbutanoyl)-4-hydroxy-N-(4-(4-methylthiazol-5-yl)benzyl)pyrrolidine-2-carboxamide by HiBiT based Combinatorial Ubiquitination Real-time PROteolysis analysis.
T1 sequence (P40337 whole entry, looked up, other chains not shown): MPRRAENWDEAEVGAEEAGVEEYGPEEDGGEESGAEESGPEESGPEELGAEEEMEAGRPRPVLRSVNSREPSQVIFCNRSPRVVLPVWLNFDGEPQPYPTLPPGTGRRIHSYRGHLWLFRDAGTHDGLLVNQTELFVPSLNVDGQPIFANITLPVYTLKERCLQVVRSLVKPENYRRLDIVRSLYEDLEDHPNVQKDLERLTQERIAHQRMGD

In assay [3] the target is T1, von Hippel-Lindau disease tumor suppressor/Bromodomain-containing protein 4. The experiment in a line: PROTAC activity at VHL/BRD4 in human MCF7 cells assessed as induction of BRD4 degradation at 10 uM measured at 4 hrs in presence of VHL based ligand (2S,4R)-1-((S)-2-(2,3-dihydroxybenzamido)-3,3-dimethylbutanoyl)-4-hydroxy-N-(4-(4-methylthiazol-5-yl)benzyl)pyrrolidine-2-carboxamide by Western blot based Combinatorial Ubiquitination Real-time PROteolysis analysis.

The target is the same in assay [4]. The assay is described as follows: PROTAC activity at BRD4/VHL in human MCF7 cells assessed as induction of BRD4 degradation by measuring residual activity at 300 nM incubated for 24 hrs in presence of VHL based ligand (2S,4R)-1-((S)-2-(2,3-dihydroxybenzamido)-3,3-dimethylbutanoyl)-4-hydroxy-N-(4-(4-methylthiazol-5-yl)benzyl)pyrrolidine-2-carboxamide by Western blot based Combinatorial Ubiquitination Real-time PROteolysis analysis.

Assay [5] shares this target. The assay is described as follows: PROTAC activity at BRD4/VHL in human MCF7 cells assessed as induction of BRD4 degradation by measuring residual activity at 3 uM incubated for 24 hrs in presence of 100 nM VHL based ligand (2S,4R)-1-((S)-2-(2,3-dihydroxybenzamido)-3,3-dimethylbutanoyl)-4-hydroxy-N-(4-(4-methylthiazol-5-yl)benzyl)pyrrolidine-2-carboxamide by Western blot based Combinatorial Ubiquitination Real-time PROteolysis analysis.

For assay [6] the target is unchanged. The experiment in a line: PROTAC activity at BRD4/VHL in human MCF7 cells assessed as induction of BRD4 degradation by measuring residual activity at 10 uM incubated for 24 hrs in presence of 3 uM VHL based ligand (2S,4R)-1-((S)-2-(2,3-dihydroxybenzamido)-3,3-dimethylbutanoyl)-4-hydroxy-N-(4-(4-methylthiazol-5-yl)benzyl)pyrrolidine-2-carboxamide by Western blot based Combinatorial Ubiquitination Real-time PROteolysis analysis.

The target is the same in assay [7]. The experiment in a line: PROTAC activity at BRD4/VHL in human MCF7 cells assessed as induction of BRD4 degradation by measuring residual activity at 100 nM incubated for 24 hrs in presence of 10 uM VHL based ligand (2S,4R)-1-((S)-2-(2,3-dihydroxybenzamido)-3,3-dimethylbutanoyl)-4-hydroxy-N-(4-(4-methylthiazol-5-yl)benzyl)pyrrolidine-2-carboxamide by Western blot based Combinatorial Ubiquitination Real-time PROteolysis analysis.

Assay [8] has the same target. The experiment in a line: PROTAC activity at BRD4/VHL in human MCF7 cells assessed as induction of BRD4 degradation by measuring residual activity at 10 uM incubated for 24 hrs in presence of 10 uM VHL based ligand (2S,4R)-1-((S)-2-(2,3-dihydroxybenzamido)-3,3-dimethylbutanoyl)-4-hydroxy-N-(4-(4-methylthiazol-5-yl)benzyl)pyrrolidine-2-carboxamide by Western blot based Combinatorial Ubiquitination Real-time PROteolysis analysis.

Assay [9] shares this target. The experiment in a line: PROTAC activity at BRD4/VHL in human MCF7 cells assessed as induction of BRD4 degradation by measuring residual activity at 100 nM incubated for 24 hrs in presence of 100 nM BRD4 based ligand ((4S)-6-(4-chlorophenyl)-4-(2-(ethylamino)-2-oxoethyl)-1-methyl4Hbenzo[f][1,2,4]triazolo [4,3-a][1,4]diazepin-8-yl)boronic acid by Western blot based Combinatorial Ubiquitination Real-time PROteolysis analysis.

For assay [10] the target is unchanged. The assay is described as follows: PROTAC activity at BRD4/VHL in human MCF7 cells assessed as induction of BRD4 degradation by measuring residual activity at 3 uM incubated for 24 hrs in presence of 300 nM BRD4 based ligand ((4S)-6-(4-chlorophenyl)-4-(2-(ethylamino)-2-oxoethyl)-1-methyl4Hbenzo[f][1,2,4]triazolo [4,3-a][1,4]diazepin-8-yl)boronic acid by Western blot based Combinatorial Ubiquitination Real-time PROteolysis analysis.

Assay [11] has the same target. The experiment in a line: PROTAC activity at BRD4/VHL in human MCF7 cells assessed as induction of BRD4 degradation by measuring residual activity at 30 nM incubated for 24 hrs in presence of 1 uM BRD4 based ligand ((4S)-6-(4-chlorophenyl)-4-(2-(ethylamino)-2-oxoethyl)-1-methyl4Hbenzo[f][1,2,4]triazolo [4,3-a][1,4]diazepin-8-yl)boronic acid by Western blot based Combinatorial Ubiquitination Real-time PROteolysis analysis.

The target is the same in assay [12]. The experiment in a line: PROTAC activity at BRD4/VHL in human MCF7 cells assessed as induction of BRD4 degradation by measuring residual activity at 1 uM incubated for 24 hrs in presence of 1 uM BRD4 based ligand ((4S)-6-(4-chlorophenyl)-4-(2-(ethylamino)-2-oxoethyl)-1-methyl4Hbenzo[f][1,2,4]triazolo [4,3-a][1,4]diazepin-8-yl)boronic acid by Western blot based Combinatorial Ubiquitination Real-time PROteolysis analysis.

For assay [13] the target is unchanged. The experiment in a line: PROTAC activity at BRD4/VHL in human MCF7 cells assessed as induction of BRD4 degradation by measuring residual activity at 3 uM incubated for 24 hrs in presence of 3 uM BRD4 based ligand ((4S)-6-(4-chlorophenyl)-4-(2-(ethylamino)-2-oxoethyl)-1-methyl4Hbenzo[f][1,2,4]triazolo [4,3-a][1,4]diazepin-8-yl)boronic acid by Western blot based Combinatorial Ubiquitination Real-time PROteolysis analysis.

Assay [14] has the same target. The experiment in a line: PROTAC activity at BRD4/VHL in human MCF7 cells assessed as induction of BRD4 degradation by measuring residual activity at 100 nM incubated for 24 hrs in presence of 10 uM BRD4 based ligand ((4S)-6-(4-chlorophenyl)-4-(2-(ethylamino)-2-oxoethyl)-1-methyl4Hbenzo[f][1,2,4]triazolo [4,3-a][1,4]diazepin-8-yl)boronic acid by Western blot based Combinatorial Ubiquitination Real-time PROteolysis analysis.

The target is the same in assay [15]. The assay is described as follows: PROTAC activity at BRD4/VHL in human MCF7 cells assessed as induction of BRD4 degradation by measuring residual activity at 10 uM incubated for 24 hrs in presence of 10 uM BRD4 based ligand ((4S)-6-(4-chlorophenyl)-4-(2-(ethylamino)-2-oxoethyl)-1-methyl4Hbenzo[f][1,2,4]triazolo [4,3-a][1,4]diazepin-8-yl)boronic acid by Western blot based Combinatorial Ubiquitination Real-time PROteolysis analysis.

For the compound `CCNC(=O)C[C@@H]1N=C(c2ccc(Cl)cc2)c2cc(B(O)O)ccc2-n2c(C)nnc21`, in [1], the outcome was inactive. Further, the Emax in [2] is 80%. Further, the Activity in assay [3] came to 100%; in assay [4], 100%; in [5] it was 51%; in [6], 7%; in assay [7], 87%; in assay [8], 6%.

On to `Cc1ncsc1-c1ccc(CNC(=O)[C@@H]2C[C@@H](O)CN2C(=O)[C@@H](NC(=O)c2cccc(O)c2O)C(C)(C)C)cc1`, for which the Activity in [9] was 97%; in assay [10] it was 39%; in assay [11], 96%; in assay [12] it was 35%; in assay [13], 16%; in assay [14] it was 87%. For the same compound, the Activity in assay [15] came to 6%.
